# Source: US20260317367A1, “SALTS INCLUDING CRYSTALLINE SALTS OF 25-HYDROXY-CHOLEST-5-EN-3-SULFATE AND METHODS FOR PREPARING SAME” (Durect Corporation, priority 2022, published 2026)
# Where a name gives a salt, the structure may show the parent alone.
# How the values were obtained:
# Assay type in all cases: physicochemical
# [1] = Differential scanning calorimetry (DSC), thermal decomposition / endothermic transition
# In short: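 Sample in a hermetically sealed aluminium pan with pierced lid, reference an empty aluminium pan. Heated from 30 °C to 350 °C or 30 °C to 250 °C at 10 °C/min. Instrument calibrated with indium, tin, zinc, octane and phenyl salicylate.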
# [2] = Solubility of 25HC3S salts after one day at room temperature (HPLC, as free acid); details: room temperature, one day
# In short: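 25HC3S salts were shaken with excess solid at room temperature for one day in organic solvents or aqueous/biorelevant media (FaSSIF, FeSSIF, FaSSGF), then centrifuged. Supernatants were assayed by HPLC against a free-acid standard curve (11 μg/mL to 1.5 mg/mL); values are mg/mL free acid, LOD 0.0007 mg/mL.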
# [3] = Final pH of the solubility sample solutions in aqueous media; details: for pH of the solubility sample, 0.9% Sodium Chloride: 0.9% sodium chloride (blank 5.8); for pH of the solubility sample, 5% Dextrose: 5% dextrose (blank 4.7); for pH of the solubility sample, FaSSGF: FaSSGF (blank 1.5, 1.6); for pH of the solubility sample, FaSSIF: FaSSIF (blank 6.5, 6.5); for pH of the solubility sample, FeSSIF: FeSSIF (blank 4.9, 5.0); for pH of the solubility sample, Water: water (blank 6.3)
# In short: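 25HC3S salts shaken as excess-solid suspensions in aqueous media at room temperature (210 motions/min) for one day. Aliquots centrifuged at 12000 rpm for 12–15 min; clear supernatant assayed undiluted by HPLC.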
# [4] = Appearance (color, clumping, flowability) of stored 25HC3S salts
# [5] = X-ray powder diffraction before and after DVS (form stability); details: 5% to 95% RH
# Method: XRPD patterns were collected with a PANalytical X'Pert PRO MPD or a PANalytical Empyrean diffractometer using an incident beam of Cu radiation produced using an Optix long, fine-focus source. An elliptically graded multilayer mirror was used to focus Cu Kα X-rays through the specimen and onto the detector. Prior to the analysis, a silicon specimen (NIST SRM 640f) was analyzed to verify the observed position of the Si 111 peak is consistent with the NIST-certified position. A specimen of the sample was sandwiched between 3-μm-thick films and analyzed in transmission geometry. A beam-stop, short antiscatter extension, and antiscatter knife edge were used to minimize the background generated by air. Soller slits for the incident and diffracted beams were used to minimize broadening and asymmetry from axial divergence. Diffraction patterns were collected using a scanning position-sensitive detector (X'Celerator) located 240 mm from the specimen and Data Collector software v. 5.5. All images have the instrument labeled as X'Pert PRO MPD regardless of the instrument used.
# XRPD patterns were collected with a PANalytical X'Pert PRO MPD diffractometer using an incident beam of Cu Kα radiation produced using a long, fine-focus source and a nickel filter. The diffractometer was configured using the symmetric Bragg-Brentano geometry. Prior to the analysis, a silicon specimen (NIST SRM 640f) was analyzed to verify the observed position of the Si 111 peak is consistent with the NIST-certified position. A specimen of the sample was prepared as a thin, circular layer centered on a silicon zero-background substrate. Antiscatter slits (SS) were used to minimize the background generated by air. Soller slits for the incident and diffracted beams were used to minimize broadening from axial divergence. Diffraction patterns were collected using a scanning position-sensitive detector (X'Celerator) located 240 mm from the sample and Data Collector software v. 5.5
# Dynamic vapor sorption data was collected on a Surface Measurement System DVS Intrinsic instrument. The samples were not dried prior to analysis. Sorption and desorption data were collected over a range from 5% to 95% RH in 10% RH increments under a nitrogen purge. The equilibrium criteria used for the analyses were 0.001 dm/dt weight change in 5 minutes with a minimum step time of 30 minutes and maximum equilibration time of 180 minutes with a 3 minute data logging interval. Data were not corrected for the initial moisture content of the sample.
# [6] = listed as crystalline 25HC3S calcium
# [7] = listed as crystalline 25HC3S choline
smiles,measurement,setting,value
CC(CCCC(C)(C)O)C1CCC2C3CC=C4CC(OS(=O)(=O)O)CCC4(C)C3CCC12C (stereo not drawn) [Salt #2],Decomposition temperature (DSC),"[1]; DSC, 10° C./min, listed as crystalline 25HC3S calcium",about 130 °C
same,Solubility in 5% Dextrose,"[2]; as free acid, LOD 0.0007 mg/mL, 1440 min",5 µg/mL
same,Solubility in FaSSGF (in words),"[2]; FaSSGF, listed as crystalline 25HC3S calcium",low solubility
same,Solubility in FaSSIF (in words),"[2]; FaSSIF, listed as crystalline 25HC3S calcium",relatively high solubility
same,Solubility in saline / 0.9% sodium chloride (in words),[2]; [6],low solubility
same,"pH of the solubility sample, 0.9% Sodium Chloride",[3]; listed as 25HC3S calcium,8.5
same,pH of solubility sample solution in 0.9% sodium chloride,[3]; 0.9% sodium chloride (medium pH 5.8),8.5
same,"pH of the solubility sample, 5% Dextrose",[3]; listed as 25HC3S calcium,7.2
same,"pH of the solubility sample, FaSSGF",[3],1.6
same,"pH of the solubility sample, FaSSIF",[3]; listed as 25HC3S calcium,6.5
same,"pH of the solubility sample, FeSSIF",[3],5.0
same,"pH of the solubility sample, Water",[3]; listed as 25HC3S calcium,8.8
same,Appearance,"[4]; 2-8° C., 3 wk, listed as 25HC3S calcium","White, free flowing powder with some"
same,Appearance,"[4]; 60° C., 1 wk (after 3 weeks at 2-8° C.), listed as 25HC3S calcium","Brown, melted material stuck to bottom"
same,Appearance after 3 weeks at 80° C.,"[4]; 80° C., 3 weeks",completely burned
same,Appearance,"[4]; 80° C., 3 wk, listed as 25HC3S calcium","Dark brown, melted material stuck to"
same,Change of x-ray powder diffraction pattern after DVS (in words),[5]; [6],not an appreciable change
CC(CCCC(C)(C)O)C1CCC2C3CC=C4CC(OS(=O)(=O)O)CCC4(C)C3CCC12C (stereo not drawn) [Salt #4],First significant endothermic transition (DSC),"[1]; indicative of thermal degradation or solid-state transformation, listed as choline",~198 °C
same,Solubility in 5% Dextrose,"[2]; as free acid, ND = not detected, detection limit 0.7 μg/mL, 1440 min, listed as 25HC3S choline",93 µg/mL
same,Solubility in FaSSGF,"[2]; FaSSGF, as free acid, ND = not detected, detection limit 0.7 μg/mL, 1440 min, listed as 25HC3S choline",8 µg/mL
same,Solubility in FaSSGF (in words),"[2]; FaSSGF, listed as crystalline 25HC3S choline",low solubility
same,Solubility in FaSSIF,"[2]; FaSSIF, as free acid, 1440 min, listed as 25HC3S choline",152 µg/mL
same,Solubility in FaSSIF (in words),"[2]; FaSSIF, listed as crystalline 25HC3S choline",relatively high solubility
same,Solubility in FeSSIF,"[2]; FeSSIF, as free acid, 1440 min, listed as 25HC3S choline",827 µg/mL
same,Solubility in FeSSIF (in words),"[2]; FeSSIF, listed as crystalline 25HC3S choline",relatively high solubility
same,Solubility in ACN,"[2]; acetonitrile, as free acid, 1440 min, listed as 25HC3S choline",500 µg/mL
same,Solubility in EtOH,"[2]; ethanol, as free acid, ≥ = did not reach saturation, 1440 min, listed as 25HC3S choline",3400 µg/mL
same,Solubility in IPA,"[2]; isopropyl alcohol, as free acid, 1440 min, listed as 25HC3S choline",600 µg/mL
same,Solubility in MeOH,"[2]; methanol, as free acid, ≥ = did not reach saturation, 1440 min, listed as 25HC3S choline",17500 µg/mL
same,Solubility in saline / 0.9% sodium chloride (in words),[2]; [7],low solubility
same,Solubility in H2O,"[2]; water, as free acid, ND = not detected, detection limit 0.7 μg/mL, 1440 min, listed as 25HC3S choline",107 µg/mL
same,"pH of the solubility sample, 0.9% Sodium Chloride",[3]; listed as 25HC3S choline,8.2
same,"pH of the solubility sample, 5% Dextrose",[3]; listed as 25HC3S choline,7.3
same,"pH of the solubility sample, FaSSGF",[3],1.6
same,"pH of the solubility sample, FaSSIF",[3]; listed as 25HC3S choline,6.5
same,"pH of the solubility sample, FeSSIF",[3],5.0
same,"pH of the solubility sample, Water",[3]; listed as 25HC3S choline,8.8
same,Appearance,"[4]; 2-8° C., 3 wk, listed as 25HC3S choline","White, free flowing powder with clumping"
same,Appearance,"[4]; 2-8° C., 5 wk","White, free flowing powder with clumping"
same,Appearance,"[4]; 80° C., 3 wk, listed as 25HC3S choline","White, free flowing powder with clumping"
same,Appearance,"[4]; 80° C., 5 wk","White, free flowing powder with clumping"
same,Change of x-ray powder diffraction pattern after DVS (in words),[5]; [7],does not appreciably change
